The text below walks through data of patent publication US11802147B2, “High affinity monoclonal antibodies for detecting amanitins” (priority 2019, dated 2023).

One assay relates to mAb 9G3.2. The class given is binding, mouse. Conditions: for competitive inhibition of mAb 9G3.2: cELISA, up to 1,000 ng/mL; for recognition by mAb 9G3.2: statement of deposit.
For the next assay, the system named is mAb 9C12.2. The format is binding, mouse. Conditions: for competitive inhibition of mAb 9C12.2: cELISA, up to 1,000 ng/mL; for recognition by mAb 9C12.2: statement of deposit.
The subject of a further assay is mAb AMA9G3. The format is binding, mouse. More on the design: concentration at which test strips detect: unit not given here. Conditions: for concentration giving complete inhibition of the signal: either hapten as test line; for CR (cross-reactivity): lateral flow test strips.
Assay [1] has as its system Previously described mAbs to amatoxins. Conditions: He et al; cited from earlier work.
Setting [2] is: mAb 9G3.2, (IC50 α-AMA)/(IC50 test inhibitor)×100.
The mark [3] stands for this setting: mAb 9G3.2, inhibitor mixed with antibody, PERI-AMA-BSA coated plate.
[4] abbreviates: mAb 9C12.2, (IC50 α-AMA)/(IC50 test inhibitor)×100.
Setting [5] is: mAb 9C12.2, inhibitor mixed with antibody, PERI-AMA-BSA coated plate.
The mark [6] stands for this setting: cross-reactivity with near neighbor compounds.

In brackets after ≈: the same amount, converted by molar mass. Where two headings read alike, the source gives them in different places. Starred links: 1 amine or outer side, 2 acyl side, 3 side chain; linkers in the order of their positions; H or OH if unused. Positions of bridges follow the written chain, without caps; N, C: chain ends. Non-standard residues stand in square brackets, D forms with d. Residues, ends and D or L forms follow the SMILES beside them. ξ: configuration not given here. Adda = CO[C@@H](Cc1ccccc1)[C@@H](C)/C=C(C)/C=C/[C@H](N[*:1])[C@H](C)C(=O)[*:2]; Trp(2-yl) = O=C([C@H](Cc1c([*:3])[nH]c2ccccc12)N[*:1])[*:2]; dAsp(3S-Me) = C[C@H](C(=O)[*:3])[C@@H](N[*:1])C(=O)[*:2]; ξTrp(2-yl) = O=C(C(Cc1c([*:3])[nH]c2ccccc12)N[*:1])[*:2]; Leu(4R-OH,5-OH) = C[C@](O)(CO)C[C@H](N)C(=O)O; d(γGlu) = O=C(O)[C@@H](CCC(=O)[*:2])N[*:1]; X1 = CC(O)(CO)CC(N[*:1])C(=O)[*:2]; cisHyp = O=C(O)[C@@H]1C[C@H](O)CN1; ξAsp(3ξ-OH) = NC(C(=O)O)C(O)C(=O)O; Hyp = O=C(O)[CH]1C[CH](O)CN1; NMeDha = C=C(NC)C(=O)O

Usually IC50 stands for the concentration that gives 50% inhibition.

With `CC[C@H](C)[C@@H]1NC(=O)CNC(=O)[C@@H]2Cc3c([nH]c4cc(O)ccc34)[S+]([O-])C[C@@H](NC(=O)CNC1=O)C(=O)N[C@@H](CC(N)=O)C(=O)N1C[C@H](O)C[C@H]1C(=O)N[C@@H]([C@@H](C)[C@@H](O)CO)C(=O)N2` (stereo in doubt) [α-amanitin], in the assay on mAb 9G3.2, the “competitive inhibition of mAb 9G3.2” value is listed as “competitively inhibited” and the “recognition by mAb 9G3.2” value was “recognizes”. Also, in the assay with mAb 9G3.2 (setting [2]), the Cross reactivity is recorded as 100%. In the assay with mAb 9G3.2 (setting [3]), this compound had an IC50 of 0.00157 µg/mL (≈ 0.00171 µM). For the same compound, in the assay with mAb 9C12.2, the “competitive inhibition of mAb 9C12.2” value is “competitively inhibited” and the “recognition by mAb 9C12.2” value is reported as “recognizes”. Further, the Cross reactivity in the assay with mAb 9C12.2 (setting [4]) amounted to 100%. Besides, the IC50 in the assay with mAb 9C12.2 (setting [5]) amounted to 0.00266 ± 0.00018 µg/mL (≈ 0.00289 µM). Moreover, the “concentration giving complete inhibition of the signal” value in the assay on mAb AMA9G3 was found to be 10 ng/mL. Further, the “IC50 of previously described mAbs” value in assay [1] was 0.066 µg/mL.

Turning to `CC1NC(=O)C2CC(O)CN2C(=O)C2CSc3[nH]c4ccccc4c3CC(NC1=O)C(=O)NC(CC(C)(O)CO)C(=O)NC(C(C)C)C(=O)NC(C(O)C(=O)O)C(=O)N2` (stereo not drawn) [phallacidin] (cyclo([ξAsp(3ξ-OH)]C[Hyp]A[ξTrp(2-yl)][X1]V); thioether 2-5; configuration not given here), the Cross reactivity in the assay on mAb 9G3.2 (setting [2]) and in the assay on mAb 9C12.2 (setting [4]) was less than 0.3% in each case. The IC50 in the assay on mAb 9G3.2 (setting [3]) and in the assay with mAb 9C12.2 (setting [5]) was more than 1 µg/mL each time. The “concentration at which test strips detect” value with mAb AMA9G3 (setting [6]) amounted to 200. Also, the “CR (cross-reactivity)” value with mAb AMA9G3 is recorded as 0.005%.

Regarding `C[C@@H]1NC(=O)[C@H](C[C@@](C)(O)CO)NC(=O)[C@@H]2Cc3c([nH]c4ccccc34)SC[C@H](NC(=O)[C@@H]([C@H](C)O)NC1=O)C(=O)N1C[C@@H](O)C[C@H]1C(=O)N[C@@H](C)C(=O)N2` [phalloidin] (cyclo(A[dT]C[cisHyp]A[Trp(2-yl)][Leu(4R-OH,5-OH)]); thioether 3-6), the Cross reactivity in the assay with mAb 9G3.2 (setting [2]) and with mAb 9C12.2 (setting [4]) was less than 0.3% each time. Further, the IC50 in the assay on mAb 9G3.2 (setting [3]) and with mAb 9C12.2 (setting [5]) was more than 1 µg/mL each time. In the assay with mAb AMA9G3, the “CR (cross-reactivity)” value is listed as 0.005%.

For `C=C1C(=O)N[C@H](C)C(=O)N[C@@H](CC(C)C)C(=O)N[C@@H](C(=O)O)[C@H](C)C(=O)N[C@@H](CCCNC(=N)N)C(=O)N[C@@H](/C=C/C(C)=C/[C@H](C)[C@H](Cc2ccccc2)OC)[C@H](C)C(=O)N[C@@H](C(=O)O)CCC(=O)N1C` [microcystin-LR] (R[Adda][d(γGlu)][NMeDha][dA]L[dAsp(3S-Me)]-OH; lactam N-7), the Cross reactivity in the assay with mAb 9G3.2 and with mAb 9C12.2 was less than 0.3% throughout. Also, the IC50 with mAb 9G3.2 and in the assay on mAb 9C12.2 was more than 1 µg/mL in each case. Also, in the assay on mAb AMA9G3, the “detection by test strips” value is given as “did not detect”.

Turning to γ-amanitin, the “competitive inhibition of mAb 9G3.2” value in the assay on mAb 9G3.2 was “competitively inhibited”. Also, the Cross reactivity with mAb 9G3.2 (setting [2]) came out at 96%; in the assay on mAb 9C12.2 (setting [4]), 115%. The IC50 with mAb 9G3.2 (setting [3]) was found to be 0.00163 ± 0.00021 µg/mL; in the assay on mAb 9C12.2 (setting [5]) it was 0.0023 ± 0.00031 µg/mL. Also, the “recognition by mAb 9G3.2” value in the assay with mAb 9G3.2 was “recognizes”. Besides, the “competitive inhibition of mAb 9C12.2” value in the assay on mAb 9C12.2 was “competitively inhibited”. Moreover, the “concentration giving complete inhibition of the signal” value with mAb AMA9G3 is listed as 10 ng/mL.

Turning to `NCc1cc(=O)[nH]o1` [muscimol], the Cross reactivity with mAb 9G3.2 (setting [2]) and in the assay on mAb 9C12.2 (setting [4]) was less than 0.3% throughout. The IC50 in the assay on mAb 9G3.2 (setting [3]) and in the assay on mAb 9C12.2 (setting [5]) was more than 1 µg/mL in each case. Besides, the “detection by test strips” value with mAb AMA9G3 (setting [6]) is given as “did not detect”.

On to `C/C=C1/C(=O)N[C@@H](C(=O)O)[C@H](C)C(=O)N[C@@H](CCCNC(=N)N)C(=O)N[C@@H](/C=C/C(C)=C/[C@H](C)[C@H](Cc2ccccc2)OC)[C@H](C)C(=O)N[C@@H](C(=O)O)CCC(=O)N1C` [nodularin], for which, in the assay on mAb 9G3.2, the Cross reactivity is listed as less than 0.3% and the IC50 is more than 1 µg/mL. In the assay on mAb 9C12.2, the Cross reactivity is less than 0.3% and the IC50 is more than 1 µg/mL. In the assay on mAb AMA9G3, the “detection by test strips” value is “did not detect”.

Consider `N[C@H](C(=O)O)c1cc(=O)[nH]o1` [ibotenic acid], for which the Cross reactivity in the assay with mAb 9G3.2 (setting [2]) and in the assay with mAb 9C12.2 (setting [4]) was less than 0.3% in each case. Moreover, the IC50 in the assay with mAb 9G3.2 (setting [3]) and with mAb 9C12.2 (setting [5]) was more than 1 µg/mL in each case. The “detection by test strips” value in the assay with mAb AMA9G3 (setting [6]) was “did not detect”.

As to β-amanitin, in the assay on mAb 9G3.2, the “competitive inhibition of mAb 9G3.2” value was “competitively inhibited” and the “recognition by mAb 9G3.2” value is reported as “recognizes”. Also, in the assay with mAb 9G3.2 (setting [2]), the Cross reactivity worked out at 6.5%. This compound also yielded an IC50 in the assay on mAb 9G3.2 (setting [3]) of 0.0242 ± 0.0062 µg/mL. In the assay on mAb 9C12.2, the “competitive inhibition of mAb 9C12.2” value was “no reduction in signal response” and the “recognition by mAb 9C12.2” value is “recognizes”. Further, the Cross reactivity with mAb 9C12.2 (setting [4]) was less than 0.3%. In the assay with mAb 9C12.2 (setting [5]), this compound had an IC50 of more than 1 µg/mL.
